Test results published in patent US4582824A, “Method for inhibiting activities of platelet activating factor” (Takeda Chemical Industries, Ltd., priority 1983, dated 1986).

Experiments:
[1] = tested on: PAF-induced platelet aggregation (washed PRP); assay: Activity to inhibit PAF in platelet aggregation (washed PRP); type: cell-based, rabbit; details: Oryctolagus cuniculus, test compound 3×10^-5 M, PAF 3×10^-7 M, 37° C., read-out: Inhibition rate
Description: Using an injection syringe containing a 3.15% solution of citric acid (in a ratio of 1 part per 9 parts of blood) as an anticoagulant, the blood was directly collected from a male rabbit. Then, at room temperature, the blood was centrifuged at 1,000 r.p.m. for 10 minutes to harvest a platelet rich plasma (PRP). This PRP was further centrifuged at 1,400 r.p.m. for 15 minutes to give a platelet pellet. The pellet was suspended in Ca^++ -free Tyrode solution (containing 0.25% of gelatin) to give a washed PRP. This washed PRP (250 μl) was stirred at 37° C. for 2 minutes, then 25 μl of a 0.2 to 0.5 mM Ca^++ solution was added, and the mixture was further stirred for 30 seconds. Then, the test compound was added to the above platelet preparation to a level of 3×10^-5 M. After stirring the mixture for 2 minutes, 3×10^-7 M of PAF was added. The degree of platelet aggregation was determined with a platelet aggregometer (Rika Denki). The activity of the test compound was estimated from the inhibition rate as compared with the maximum optical transmission (maximum aggregation) of control PRP by PAF.

[2] = tested on: endotoxin-induced blood pressure fall; assay: Anti-endotoxin shock activity in rats; type: in vivo, rat (Sprague-Dawley); details: 10 mg/kg i.v., 10 minutes before endotoxin 15 mg/kg i.v., mean ± SD
Description: Male Sprague-Dawley rats weighing 500 to 600 g were used under pentobarbital sodium (50 mg/kg, i.v.) anesthesia. A cannula was inserted into the femoral artery and secured in position for measurement of blood pressure and another cannula into the femoral vein for administration of a solution of the drug. The blood pressure was measured via a pressure transducer and recorded on a polygraph. For a control group, a suspension of endotoxin (Lipopolysaccharide W. E. coli 0111: B4, Wako Pure Chemical) in physiological saline was administered into the femoral vein and the maximum hypotensive response occurring 3 to 5 minutes after administration was recorded. On the other hand, for the administration of 3-(N-n-octadecylcarbamoyloxy)-2-methoxypropyl 2-thiazolioethyl phosphate [hereinafter, compound (IA)], the compound (IA) was dissolved in physiological saline and administered into the femoral vein in a dose of 10 mg/kg. Ten (10) minutes after the administration of (IA), endotoxin was similarly administered and the maximum hypotensive response was recorded. The anti-endotoxin shock activity of the test compound was estimated from the difference in blood pressure response between the (IA) treatment group and the non-(IA)treatment group.

endotoxin-induced death = assay: Preventive effect against endotoxin-induced death in mice; type: in vivo, mouse (ICR-Jcl); details: 10 mg/kg i.v. + endotoxin 15 mg/kg i.v.
Description: Male mice of ICR-Jcl strain, aged 5 weeks and with a body weight of about 30 g, were used in groups of 7 individuals. For the control group, 15 mg/kg of endotoxin was suspended in 0.1 ml/10 g of physiological saline and injected into the tail vein. For the compound (IA) treatment group, 10 mg/kg of the compound (IA) and 15 mg/kg of endotoxin were suspended in 0.1 ml/10 g of physiological saline and similarly injected into the tail vein. The mice were examined for death up to 20 hours after the treatment.

[3] = tested on: circulatory shock due to PAF; assay: Inhibitory activity against circulatory shock due to PAF in anesthetized dogs; type: in vivo, mongrel dogs; details: PAF 1.0 μg/kg i.v. after pretreatment 10 mg/kg i.v.
Description: Male and female mongrel dogs weighing 9 to 13 kg were used. Under pentobarital sodium ([…], i.v.) anesthesia and supportive respiration, a thoracotomy was performed at the left fourth interspace. The origin of the left coronary circumflex and the aortic arch were released, an electromagnetic probe was attached to each, and the coronary blood flow (CoF) and cardiac output (CO) were measured. Moreover, a polyethylene cannula was inserted from the apex of the heart into the left ventricle and the left ventricular pressure (LVP) was measured by means of a pressure transducer. In addition, its first-order differential dp/dt was determined by way of a differential circuit. The mean blood pressure (MBP) was continuously recorded on an ink-writing polygraph through a pressure transducer via a cannula inserted into the right femoral artery and the heart rate (HR) was similarly recorded via a tachometer driven by mean blood pressure pulse waves. PAF and the compound of Production Example 2 were respectively dissolved in physiological saline and administered via a cannula into the left femoral vein. After 1.0 μg/kg of PAF was intravenously administered and the respective parameters recovered to normal, the compound of Production Example 2 (10 mg/kg) was intravenously administered. After 10 minutes, 1.0 μg/kg of PAF was intravenously administered to estimate the anti-PAF activity of the compound of Production Example 2. All values are in percents relative to the values prior to PAF administration.

[4] = tested on: PAF-induced respiratory (airway) stenosis; assay: PAF-inhibiting activity in respiratory stenosis; type: in vivo, guinea pig (Hartley); details: 2 minutes before PAF 0.3 μg/kg i.v.
Description: Male and female Hartley strain guinea pigs weighing about 400 g were used. Under urethane anesthesia (1.5 g/kg, i.p.), each animal was immobilized in supine position and one shank of a tracheal cannula (of 4-shank type) was inserted into the airway, with two of the remaining three shanks being connected to a Harvard Apparatus rodent respirator and the remaining one shank to a bronchospasm transducer (Ugo-basile Model 7020). At an air volume of 5 to 7 ml per cycle, an air supply frequency of 70 times/min. and a lung loading pressure of 10 cm H2 O, the volume of overflowing air was recorded through the transducer on a rectigraph (Rectigraph-8S, Sanei Sokki K.K.). After gallamine triethodide (1 mg/kg, i.v.) treatment, […] of histamine 2HCl was intravenously administered to examine the response of the animal. When 0.3 μg/kg of PAF was intravenously administered to control group intravenously pretreated with physiological saline, a miximum airway stenosis was noted after 30 minutes and the amount of stenosis taking a complete stenosis as 100% was 72.8±4.3 (mean±S.D., for 6 cases). The compound of Production Example 2, when intravenously administered 2 minutes before at the dose levels of 0.3 and 1 mg/kg, suppressed the above response by PAF by 49% and 82%, respectively.

## CCCCCCCCCCCCCCCCCCNC(=O)OCC(COP(=O)([O-])OCC[n+]1ccccc1)OC (centres unmarked) [Production Example 1, 3-(N-Octadecylcarbamoyloxy)-2-methoxypropyl 2-pyridinioethyl phosphate]
[1]
  inhibition at 30 µM: 95%

## CCCCCCCCCCCCCCCCCNC(=O)OCC(COP(=O)([O-])OCC[n+]1ccsc1)OC (centres unmarked) [Production Example 12, 2-methoxy-3-heptadecylcarbamoyloxypropyl 2-thiazolioethyl phosphate]
[1]
  inhibition at 30 µM: 100%

## CCCCCCCCCCNC(=O)OCC(COP(=O)([O-])OCC[n+]1ccsc1)OC (centres unmarked) [Production Example 3, 3-(N-Decylcarbamoyloxy)-2-methoxypropyl 2-thiazolioethyl phosphate]
[1]
  inhibition at 30 µM: 12%

## CCCCCCCCCCCCCCCCCCCCCCNC(=O)OCC(COP(=O)([O-])OCC[n+]1ccsc1)OC (centres unmarked) [Production Example 8, 3-(N-Docosylcarbamoyloxy)-2-methoxypropyl 2-thiazolioethyl phosphate]
[1]
  inhibition at 30 µM: 24%

## CCCCCCCCCCCCCCCNC(=O)OCC(COP(=O)([O-])OCC[n+]1ccsc1)OC (centres unmarked) [Production Example 10, 2-Methoxy-3-pentadecylcarbamoyloxypropyl 2-thiazolioethyl phosphate]
[1]
  inhibition at 30 µM: 100%

## CCCCCCCCCCCCCCCCCCNC(=O)OCC(COP(=O)([O-])OCC[n+]1ccsc1)OC (centres unmarked) [Production Example 2, 3-(N-Octadecylcarbamoyloxy)-2-methoxypropyl 2-thiazolioethyl phosphate]
[2]; listed as Compound (IA)
  Max. hypotensive response after drug administration (-ΔmmHg): 15 ± 3 mmHg
[2]; listed as compound (IA)
  Max. hypotensive response after drug administration (-ΔmmHg): 15 mmHg
endotoxin-induced death
  Mortality within 20 hrs.: 14%
  No. of deaths within 20 hrs. after drug administration, Deaths/survivals: 1/7
[3]; 0.5 min
  CO (percent of value prior to PAF): 107 ± 4%
  CoF (percent of value prior to PAF): 109 ± 4%
  DBP (percent of value prior to PAF): 78 ± 5%
  HR (percent of value prior to PAF): 109 ± 2%
  LVP (percent of value prior to PAF): 92 ± 3%
  MBP (percent of value prior to PAF): 87 ± 7%
  SBP (percent of value prior to PAF): 90 ± 3%
  max dp/dt (row head is a drawing; percent of value prior to PAF): 94 ± 7%
[3]; 1 min
  CO (percent of value prior to PAF): 99 ± 2%
  CoF (percent of value prior to PAF): 103 ± 3%
  DBP (percent of value prior to PAF): 99 ± 1%
  HR (percent of value prior to PAF): 105 ± 1%
  LVP (percent of value prior to PAF): 97 ± 3%
  MBP (percent of value prior to PAF): 99 ± 1%
  SBP (percent of value prior to PAF): 99 ± 1%
  max dp/dt (row head is a drawing; percent of value prior to PAF): 98 ± 2%
[3]; 5 min
  CO (percent of value prior to PAF): 103 ± 5%
  CoF (percent of value prior to PAF): 97 ± 3%
  DBP (percent of value prior to PAF): 101 ± 2%
  HR (percent of value prior to PAF): 103 ± 3%
  LVP (percent of value prior to PAF): 100 ± 1%
  MBP (percent of value prior to PAF): 101 ± 2%
  SBP (percent of value prior to PAF): 102 ± 3%
  max dp/dt (row head is a drawing; percent of value prior to PAF): 102 ± 3%
[1]
  inhibition at 30 µM: 100%
[4]; 0.3 mg/kg i.v.
  suppression of the airway stenosis response by PAF: 49%
[4]; 1 mg/kg i.v.
  suppression of the airway stenosis response by PAF: 82%

## CCCCCCCCCCCCCCCCCCNC(=O)OCC(COP(=O)([O-])OCC[n+]1ccsc1)OCc1ccccc1 (centres unmarked) [Production Example 6, 3-(N-Octadecylcarbamoyloxy)-2-benzyloxypropyl 2-thiazolioethyl phosphate]
[1]
  inhibition at 30 µM: 79%

## CCCCCCCCCCCCCCCCCCNC(=O)OCC(COP(=O)([O-])OCC[n+]1ccc2ccccc2c1)OC (centres unmarked) [Production Example 5, 3-(N-Octadecylcarbamoyloxy)-2-methoxypropyl 2-isoquinolinioethyl phosphate]
[1]
  inhibition at 30 µM: 37%

## CCCCCCCCCCCCCCCCCCNC(=O)OCC(COP(=O)([O-])OCC[n+]1ccccc1)OCc1ccccc1 (centres unmarked) [Production Example 7, 3-(N-Octadecylcarbamoyloxy)-2-benzyloxypropyl 2-pyridinioethyl phosphate]
[1]
  inhibition at 30 µM: 19%

## CCCCCCCCCCCCCCCCCCNC(=O)OCC(COP(=O)([O-])OCC[n+]1csc(CCO)c1C)OC (centres unmarked) [Production Example 4, 3-(N-octadecylcarbamoyloxy)-2-methoxypropyl 2-(4-methyl-5-hydroxyethyl)thiazolioethyl phosphate]
[1]
  inhibition at 30 µM: 33%

## CCCCCCCCCCCCCCCCNC(=O)OCC(COP(=O)([O-])OCC[n+]1ccsc1)OC (centres unmarked) [Production Example 11, 2-Methoxy-3-hexadecylcarbamoyloxypropyl 2-thiazolioethyl phosphate]
[1]
  inhibition at 30 µM: 100%
